Assay results reported in ChEMBL document CHEMBL3856189, “Synthesis of novel diterpenoid analogs with in-vivo antitumor activity” (Eur J Med Chem, 2016).
pEC50, pIC50: −log10 of the molar value.

Key:
[1] = Antiproliferative activity against human MDA-MB-231 cells after 96 hrs by SRB assay; format: functional, cell-based; settings: MDA-MB-231, 96 h
[2] = Antiproliferative activity against human MCF7 cells after 96 hrs by SRB assay; format: functional, cell-based; settings: MCF7, 96 h
[3] = Antiproliferative activity against human T47D cells after 96 hrs by SRB assay; format: functional, cell-based
DU-145 = test: Selectivity index, ratio of IC50 for HAF cells to IC50 for human DU145 cells; format: functional
T47D [4] = test: (§1) Antimigratory activity in human T47D cells assessed as inhibition of cell migration after 12 hrs by crystal violet staining based transwell migration assay; format: functional
[5] = as §1; format: functional
T47D [6] = test: Induction of apoptosis in human T47D cells assessed as late apoptotic cells at 20 uM after 48 hrs by Annexin V-FITC/propidium iodide staining based flow cytometry (reference value: 3.04 %); format: functional
[7] = Selectivity index, ratio of IC50 for HAF cells to IC50 for human MDA-MB-231 cells; format: functional
T47D [8] = test: Induction of apoptosis in human T47D cells assessed as early apoptotic cells at 80 uM after 48 hrs by Annexin V-FITC/propidium iodide staining based flow cytometry (reference value: 3.79 %); format: functional
[9] = Selectivity index, ratio of IC50 for HAF cells to IC50 for human HT-29 cells; format: functional
HL-60 = test: Selectivity index, ratio of IC50 for HAF cells to IC50 for human HL60 cells; format: functional
T47D [10] = test: Induction of apoptosis in human T47D cells assessed as early apoptotic cells at 20 uM after 48 hrs by Annexin V-FITC/propidium iodide staining based flow cytometry (reference value: 3.79 %); format: functional
T47D [11] = test: (§2) Inhibition of colony formation in human T47D cells after 7 days by crystal violet staining based assay; format: functional, cell-based
[12] = as §2; format: functional, cell-based; settings: 168 h
T47D [13] = test: Induction of apoptosis in human T47D cells assessed as late apoptotic cells at 40 uM after 48 hrs by Annexin V-FITC/propidium iodide staining based flow cytometry (reference value: 3.04 %); format: functional
T47D [14] = test: Induction of apoptosis in human T47D cells assessed as late apoptotic cells at 80 uM after 48 hrs by Annexin V-FITC/propidium iodide staining based flow cytometry (reference value: 3.04 %); format: functional
[15] = Antiproliferative activity against human HCT116 cells after 96 hrs by SRB assay; format: functional, cell-based; settings: HCT-116, 96 h
[16] = Antiproliferative activity against HAF cells after 96 hrs by SRB assay; format: cell-based; settings: Homo sapiens
T47D [17] = test: Induction of apoptosis in human T47D cells assessed as early apoptotic cells at 40 uM after 48 hrs by Annexin V-FITC/propidium iodide staining based flow cytometry (reference value: 3.79 %); format: functional
PC-3 = test: Selectivity index, ratio of IC50 for HAF cells to IC50 for human PC3 cells; format: functional
MCF7 = test: Selectivity index, ratio of IC50 for HAF cells to IC50 for human MCF7 cells; format: functional
[18] = Antiproliferative activity against human PC3 cells after 96 hrs by SRB assay; format: functional, cell-based; settings: PC-3, 96 h
[19] = Antiproliferative activity against human HL60 cells after 96 hrs by SRB assay; format: functional, cell-based; settings: HL-60, 96 h
HCT-116 = test: Selectivity index, ratio of IC50 for HAF cells to IC50 for human HCT116 cells; format: functional
T47D [20] = test: Selectivity index, ratio of IC50 for HAF cells to IC50 for human T47D cells; format: functional
[21] = Antiproliferative activity against human HT-29 cells after 96 hrs by SRB assay; format: functional, cell-based; settings: HT-29, 96 h
[22] = Antiproliferative activity against human DU145 cells after 96 hrs by SRB assay; format: functional, cell-based; settings: DU-145, 96 h

COc1cc2c(cc1C(=O)Nc1ccc(F)cc1)CC[C@H]1C(C)(C)[C@@H](O)CC[C@]21C
pIC50 [1]: 5.62
pIC50 [2]: 6.09
pIC50 [3]: 7.40

COc1cc2c(cc1C(=O)Nc1ccccc1N)CC[C@H]1C(C)(C)[C@@H](O)CC[C@]21C
pIC50 [1]: 5.37
pIC50 [2]: 4.95
pIC50 [3]: 6.26

COC(=O)c1ccccc1NC(=O)c1cc2c(cc1OC)[C@@]1(C)CC[C@H](O)C(C)(C)[C@@H]1CC2
pIC50 [1]: 5.10
pIC50 [2]: 5.37
pIC50 [3]: 5.91

COc1cc2c(cc1C(=O)Nc1ccc(N)cc1)CC[C@H]1C(C)(C)[C@@H](O)CC[C@]21C
pIC50 [1]: 5.51
pIC50 [2]: 5.28
pIC50 [3]: 6.64

COc1cc2c(cc1C(=O)Nc1ccccc1)CC[C@H]1C(C)(C)[C@@H](O)CC[C@]21C
Ratio IC50 (DU-145): 1.9
Activity (T47D [4]): Dose-dependent effect
pEC50 [5]: 4.42
Activity (T47D [6]): 3.54%
pIC50 [1]: 5.35
Ratio IC50 [7]: 1.9
pIC50 [2]: 5.32
Activity (T47D [8]): 4.7%
Ratio IC50 [9]: 1.9
Ratio IC50 (HL-60): 1.9
Activity (T47D [10]): 2.25%
Activity (T47D [11]): Dose-dependent effect
pEC50 [12]: 6.01
Activity (T47D [13]): 6.97%
Activity (T47D [14]): 7.72%
pIC50 [15]: 5.81
pIC50 [16]: 5.02
Activity (T47D [17]): 3.33%
Ratio IC50 (PC-3): 1.9
Ratio IC50 (MCF7): 1.9
pIC50 [18]: 5.60
pIC50 [19]: 4.91
Ratio IC50 (HCT-116): 1.9
pIC50 [3]: 6.08
Ratio IC50 (T47D [20]): 1.9
pIC50 [21]: 5.61
pIC50 [22]: 4.97

COc1ccc(OC(=O)c2cc3c(cc2OC)[C@@]2(C)CC[C@H](O)C(C)(C)[C@@H]2CC3)cc1
pIC50 [1]: 4.84
pIC50 [2]: < 4.60
pIC50 [3]: 5.27

COc1ccc(N(C)C(=O)c2cc3c(cc2OC)[C@@]2(C)CC[C@H](O)C(C)(C)[C@@H]2CC3)cc1
pIC50 [1]: < 4.60
pIC50 [2]: < 4.60
pIC50 [3]: 4.89

COc1cc2c(cc1C(=O)Nc1ccc(Cl)cc1)CC[C@H]1C(C)(C)[C@@H](O)CC[C@]21C
pIC50 [1]: 5.99
pIC50 [2]: 5.84
pIC50 [3]: 6.82

COc1cc2c(cc1C(=O)Nc1ccccc1C)CC[C@H]1C(C)(C)[C@@H](O)CC[C@]21C
pIC50 [1]: 5.64
pIC50 [2]: 5.45
pIC50 [3]: 6.29

COc1cc2c(cc1C(=O)Oc1ccccc1)CC[C@H]1C(C)(C)[C@@H](O)CC[C@]21C
pIC50 [1]: < 4.60
pIC50 [2]: < 4.60
pIC50 [3]: < 4.60

COc1cc2c(cc1C(=O)Nc1ccccc1Cl)CC[C@H]1C(C)(C)[C@@H](O)CC[C@]21C
pIC50 [1]: 5.43
pIC50 [2]: 5.18
pIC50 [3]: 6.09

COc1cc2c(cc1C(=O)O)CC[C@H]1C(C)(C)C(O)CC[C@]21C (single isomer, unassigned)
pIC50 [1]: < 4.60
pIC50 [2]: < 4.60
pIC50 [3]: < 4.60

COc1cc2c(cc1C(=O)N(C)C)CC[C@H]1C(C)(C)[C@@H](O)CC[C@]21C
pIC50 [1]: < 4.60
pIC50 [2]: < 4.60
pIC50 [3]: < 4.60
